Experimental data reported in patent US10487092B2, “Pyrazolopyridinamines as MKNK1 and MKNK2 inhibitors” (BAYER PHARMA AKTIENGESELLSCHAFT, priority 2014, dated 2019).

Target: human full-length MKNK1 (Homo sapiens (Human), UniProt Q9BUB5, T344D)
Assay: MKNK1 kinase high ATP assay (TR-FRET)
Assay type: biochemical
Settings: high ATP (2 mM), 15 min preincubation with enzyme; read-out: MKNK1 IC50
Description: MKNK1 Kinase High ATP Assay
MKNK1-inhibitory activity at high ATP of compounds of the present invention after their preincubation with MKNK1 was quantified employing the TR-FRET-based MKNK1 high ATP assay as described in the following paragraphs.
A recombinant fusion protein of Glutathione-S-Transferase (GST, N-terminally) and human full-length MKNK1 (amino acids 1-424 and T344D of accession number BAA 19885.1), expressed in insect cells using baculovirus expression system and purified via glutathione sepharose affinity chromatography, was purchased from Carna Biosciences (product no 02-145) and used as enzyme. As substrate for the kinase reaction the biotinylated peptide biotin-Ahx-IKKRKLTRRKSLKG (SEQ ID NO: 1, C-terminus in amide form) was used, which can be purchased e.g. from the company Biosyntan (Berlin-Buch, Germany).
For the assay 50 nL of a 100 fold concentrated solution of the test compound in DMSO was pipetted into a black low volume 384 well microtiter plate (Greiner Bio-One, Frickenhausen, Germany), 2 μL of a solution of MKNK1 in aqueous assay buffer [50 mM HEPES pH 7.5, 5 mM MgCl2, 1.0 mM dithiothreitol, 0.005% (v/v) Nonidet-P40 (Sigma)] was added and the mixture was incubated for 15 min at 22° C. to allow pre-binding of the test compounds to the enzyme before the start of the kinase reaction. Then the kinase reaction was started by the addition of 3 μL of a solution of adenosine-tri-phosphate (ATP, 3.3 mM=>final conc. in the 5 μL assay volume is 2 mM) and substrate (0.1 μM=>final conc. in the 5 μL assay volume is 0.06 μM) in assay buffer and the resulting mixture was incubated for a reaction time of 30 min at 22° C. The concentration of MKNK1 was adjusted depending of the activity of the enzyme lot and was chosen appropriate to have the assay in the linear range, typical concentrations were in the range of 0.003 μg/mL. The reaction was stopped by the addition of 5 μL of a solution of TR-FRET detection reagents (5 nM streptavidine-XL665 [Cisbio Bioassays, Codolet, France] and 1 nM anti-ribosomal protein S6 (pSer236)-antibody from Invitrogen [#44921G] and 1 nM LANCE EU-W1024 labeled ProteinG [Perkin-Elmer, product no. AD0071]) in an aqueous EDTA-solution (100 mM EDTA, 0.1% (w/v) bovine serum albumin in 50 mM HEPES pH 7.5).
The resulting mixture was incubated for 1 h at 22° C. to allow the formation of complex between the phosphorylated biotinylated peptide and the detection reagents. Subsequently the amount of phosphorylated substrate was evaluated by measurement of the resonance energy transfer from the Eu-chelate to the streptavidine-XL. Therefore, the fluorescence emissions at 620 nm and 665 nm after excitation at 350 nm were measured in a TR-FRET reader, e.g. a Rubystar (BMG Labtechnologies, Offenburg, Germany) or a Viewlux (Perkin-Elmer). The ratio of the emissions at 665 nm and at […] was taken as the measure for the amount of phosphorylated substrate. The data were normalised (enzyme reaction without inhibitor=0% inhibition, all other assay components but no enzyme=100% inhibition).

Sequence of human full-length MKNK1 (Q9BUB5 other isoform, or with tags, fused parts or gaps T344D): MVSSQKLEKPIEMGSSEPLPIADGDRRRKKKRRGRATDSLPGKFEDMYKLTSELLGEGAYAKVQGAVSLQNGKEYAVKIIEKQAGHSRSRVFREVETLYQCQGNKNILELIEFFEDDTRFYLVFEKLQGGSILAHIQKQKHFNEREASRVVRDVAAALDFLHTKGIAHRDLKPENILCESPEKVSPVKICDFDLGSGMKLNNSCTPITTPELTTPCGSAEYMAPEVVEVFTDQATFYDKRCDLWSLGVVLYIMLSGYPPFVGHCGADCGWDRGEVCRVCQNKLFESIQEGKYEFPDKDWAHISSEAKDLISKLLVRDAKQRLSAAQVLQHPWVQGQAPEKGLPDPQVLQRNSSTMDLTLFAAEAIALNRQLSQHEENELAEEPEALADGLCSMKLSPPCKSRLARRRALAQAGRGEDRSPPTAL

SMILES | IC50
COCCN(C)C(=O)[C@H]1CCc2c(sc3ncnc(Nc4cc5ccnn5cc4Cl)c23)C1 [Example 56, (7S)-4-[(6-Chloropyrazolo[1,5-a]pyridin-5-yl)amino]-N-(2-methoxyethyl)-N-methyl-5,6,7,8-tetrahydro[1]benzothieno[2,3-d]pyrimidine-7-carboxamide] | 41 nM
CC(C)N(C)C(=O)[C@H]1CCc2c(sc3ncnc(Nc4cc5ccnn5cc4Cl)c23)C1 [Example 57, (7S)-4-[(6-Chloropyrazolo[1,5-a]pyridin-5-yl)amino]-N-methyl-N-(propan-2-yl)-5,6,7,8-tetrahydro[1]benzothieno[2,3-d]pyrimidine-7-carboxamide] | 12 nM
CN(C)[C@@H]1CCN(C(=O)[C@H]2CCc3c(sc4ncnc(Nc5cc6ccnn6cc5Cl)c34)C2)C1 [Example 58, (7S)-4-[(6-Chloropyrazolo[1,5-a]pyridin-5-yl)amino]-5,6,7,8-tetrahydro[1]benzothieno[2,3-d]pyrimidin-7-yl[(3R)-3-(dimethylamino)pyrrolidin-1-yl]methanone] | 2 nM
CN(C)[C@H]1CCN(C(=O)[C@H]2CCc3c(sc4ncnc(Nc5cc6ccnn6cc5Cl)c34)C2)C1 [Example 59, (7S)-4-[(6-Chloropyrazolo[1,5-a]pyridin-5-yl)amino]-5,6,7,8-tetrahydro[1]benzothieno[2,3-d]pyrimidin-7-yl[(3S)-3-(dimethylamino)pyrrolidin-1-yl]methanone] | 1 nM
O=C([C@H]1CCc2c(sc3ncnc(Nc4cc5ccnn5cc4Cl)c23)C1)N1C[C@H](O)[C@@H](O)C1 [Example 60, (7S)-4-[(6-Chloropyrazolo[1,5-a]pyridin-5-yl)amino]-5,6,7,8-tetrahydro[1]benzothieno[2,3-d]pyrimidin-7-yl[(3S,4S)-3,4-dihydroxypyrrolidin-1-yl]methanone] | 18 nM
CN(C)C1CCN(C(=O)[C@H]2CCc3c(sc4ncnc(Nc5cc6ccnn6cc5Cl)c34)C2)CC1 [Example 61, (7S)-4-[(6-Chloropyrazolo[1,5-a]pyridin-5-yl)amino]-5,6,7,8-tetrahydro[1]benzothieno[2,3-d]pyrimidin-7-yl[4-(dimethylamino)piperidin-1-yl]methanone] | 13 nM
CN(C)CCCN(CCO)C(=O)[C@H]1CCc2c(sc3ncnc(Nc4cc5ccnn5cc4Cl)c23)C1 [Example 63, (7S)4-[(6-Chloropyrazolo[1,5-a]pyridin-5-yl)amino]-N-[3-(dimethylamino)propyl]-N-(2-hydroxyethyl)-5,6,7,8-tetrahydro[1]benzothieno[2,3-d]pyrimidine-7-carboxamide] | 15 nM
C[C@@H]1CN(C(=O)[C@H]2CCc3c(sc4ncnc(Nc5cc6ccnn6cc5Cl)c34)C2)C[C@H](C)O1 [Example 64, (7S)-4-[(6-Chloropyrazolo[1,5-a]pyridin-5-yl)amino]-5,6,7,8-tetrahydro[1]benzothieno[2,3-d]pyrimidin-7-yl[(2R,6S)-2,6-dimethylmorpholin-4-yl]methanone] | 10 nM
CN(C)CCN1CCN(C(=O)[C@H]2CCc3c(sc4ncnc(Nc5cc6ccnn6cc5Cl)c34)C2)CC1 [Example 66, (7S)-4-[(6-Chloropyrazolo[1,5-a]pyridin-5-yl)amino]-5,6,7,8-tetrahydro[1]benzothieno[2,3-d]pyrimidin-7-yl4-[2-(dimethylamino)ethyl]piperazin-1-ylmethanone] | 6 nM
CCN(CCN(C)C)C(=O)[C@H]1CCc2c(sc3ncnc(Nc4cc5ccnn5cc4Cl)c23)C1 [Example 67, (7S)-4-[(6-Chloropyrazolo[1,5-a]pyridin-5-yl)amino]-N-[2-(dimethylamino)ethyl]-N-ethyl-3,5,6,7,8-tetrahydro[1]benzothieno[2,3-d]pyrimidine-7-carboxamide] | 30 nM
O=C([C@H]1CCc2c(sc3ncnc(Nc4cc5ccnn5cc4Cl)c23)C1)N1CCOCC1 [Example 68, (7S)-4-[(6-Chloropyrazolo[1,5-a]pyridin-5-yl)amino]-5,6,7,8-tetrahydro[1]benzothieno[2,3-d]pyrimidin-7-yl(morpholin-4-yl)methanone] | 4 nM
CCN(CCO)C(=O)[C@H]1CCc2c(sc3ncnc(Nc4cc5ccnn5cc4Cl)c23)C1 [Example 69, (7S)-4-[(6-Chloropyrazolo[1,5-a]pyridin-5-yl)amino]-N-ethyl-N-(2-hydroxyethyl)-5,6,7,8-tetrahydro[1]benzothieno[2,3-d]pyrimidine-7-carboxamide] | 6 nM
CCN(CCOC)C(=O)[C@H]1CCc2c(sc3ncnc(Nc4cc5ccnn5cc4Cl)c23)C1 [Example 70, (7S)-4-[(6-Chloropyrazolo[1,5-a]pyridin-5-yl)amino]-N-ethyl-N-(2-methoxyethyl)-5,6,7,8-tetrahydro[1]benzothieno[2,3-d]pyrimidine-7-carboxamide] | 7 nM
COCCN(CCOC)C(=O)[C@H]1CCc2c(sc3ncnc(Nc4cc5ccnn5cc4Cl)c23)C1 [Example 71, (7S)-4-[(6-Chloropyrazolo[1,5-a]pyridin-5-yl)amino]-N,N-bis(2-methoxyethyl)-5,6,7,8-tetrahydro[1]benzothieno[2,3-d]pyrimidine-7-carboxamide] | 12 nM
CN1C[C@@H]2C[C@H]1CN2C(=O)[C@H]1CCc2c(sc3ncnc(Nc4cc5ccnn5cc4Cl)c23)C1 [Example 72, (7S)-4-[(6-Chloropyrazolo[1,5-a]pyridin-5-yl)amino]-5,6,7,8-tetrahydro[1]benzothieno[2,3-d]pyrimidin-7-yl[(1S,4S)-5-methyl-2,5-diazabicyclo[2.2.1]hept-2-yl]methanone] | 14 nM
CN1C[C@H]2C[C@@H]1CN2C(=O)[C@H]1CCc2c(sc3ncnc(Nc4cc5ccnn5cc4Cl)c23)C1 [Example 73, (7S)-4-[(6-Chloropyrazolo[1,5-a]pyridin-5-yl)amino]-5,6,7,8-tetrahydro[1]benzothieno[2,3-d]pyrimidin-7-yl[(1R,4R)-5-methyl-2,5-diazabicyclo[2.2.1]hept-2-yl]methanone] | 4 nM
O=C([C@H]1CCc2c(sc3ncnc(Nc4cc5ccnn5cc4Cl)c23)C1)N1C[C@@H]2C[C@H]1CO2 [Example 74, (7S)-4-[(6-Chloropyrazolo[1,5-a]pyridin-5-yl)amino]-5,6,7,8-tetrahydro[1]benzothieno[2,3-d]pyrimidin-7-yl[(1S,4S)-2-oxa-5-azabicyclo[2.2.1]hept-5-yl]methanone] | 22 nM
O=C([C@H]1CCc2c(sc3ncnc(Nc4cc5ccnn5cc4Cl)c23)C1)N1C[C@H]2C[C@@H]1CO2 [Example 75, (7S)-4-[(6-Chloropyrazolo[1,5-a]pyridin-5-yl)amino]-5,6,7,8-tetrahydro[1]benzothieno[2,3-d]pyrimidin-7-yl[(1R,4R)-2-oxa-5-azabicyclo[2.2.1]hept-5-yl]methanone] | 56 nM
C[C@H]1COCCN1C(=O)[C@H]1CCc2c(sc3ncnc(Nc4cc5ccnn5cc4Cl)c23)C1 [Example 76, (7S)-4-[(6-Chloropyrazolo[1,5-a]pyridin-5-yl)amino]-5,6,7,8-tetrahydro[1]benzothieno[2,3-d]pyrimidin-7-yl[(3S)-3-methylmorpholin-4-yl]methanone] | 7 nM
C[C@@H]1COCCN1C(=O)[C@H]1CCc2c(sc3ncnc(Nc4cc5ccnn5cc4Cl)c23)C1 [Example 77, (7S)-4-[(6-Chloropyrazolo[1,5-a]pyridin-5-yl)amino]-5,6,7,8-tetrahydro[1]benzothieno[2,3-d]pyrimidin-7-yl[(3R)-3-methylmorpholin-4-yl]methanone] | 21 nM
CNC(=O)[C@H]1CCc2c(sc3ncnc(Nc4cc5ccnn5cc4OC)c23)C1 [Example 78, (7S)-4-[(6-Methoxypyrazolo[1,5-a]pyridin-5-yl)amino]-N-methyl-5,6,7,8-tetrahydro[1]benzothieno[2,3-d]pyrimidine-7-carboxamide] | 5 nM
COc1cn2nccc2cc1Nc1ncnc2sc3c(c12)CC[C@H](C(=O)NCC(F)F)C3 [Example 79, (7S)—N-(2,2-Difluoroethyl)-4-[(6-methoxypyrazolo[1,5-a]pyridin-5-yl)amino]-5,6,7,8-tetrahydro[1]benzothieno[2,3-d]pyrimidine-7-carboxamide] | 3 nM
